Like-named read-outs stand apart in the source and are kept apart here.
Legend:
[1] = tested on: P. falciparum stage V gametocytes; assay: Gametocytocidal ATP bioluminescence assay (single point 5 μM and 1 μM, dose-response); type: cell-based, Plasmodium falciparum; details: for Ratio IC50 HepG2/IC50 P. falciparum: IC50 HepG2 divided by IC50 P. falciparum gametocytes
[2] = tested on: luciferase reaction (BacTiter-Glo); assay: Interference assay (inhibition of the BacTiter-Glo luciferase reaction); type: biochemical; design: concentration or dose not given beside the values; details: ATP interference assay
Procedure: To discard possible false-positive results, we performed an interference assay in parallel. […] […]. The ATP solution was made by dissolving ATP powder (ATP standard from the ATPlite 1 step assay kit, reference 6016731, Perkin Elmer) in culture medium. The positive control used was the Luciferase Inhibitor I Calbiochem (Merck, 119113) at 100 μM.

[3] = Cytotoxicity in HepG2 cells (intracellular ATP, ATPlite, 48 h); type: cell-based, human; details: human, HepG2 cells
[4] = tested on: HepG2 cells; assay: as above; type: cell-based, human; details: IC50 HepG2 divided by IC50 P. falciparum gametocytes
[5] = tested on: P. falciparum asexual stages; details: TCAMS data, cited from earlier work
[6] = Plasmodium falciparum, P. falciparum gametocytes, average, read-out: IC50 Pf Gametocytes average, IC50 (µM) average
[7] = Plasmodium falciparum, sexual stages (gametocytes), dose-response, read-out: IC50 sexual
[8] = IC50 per ratio column head, unit inferred, read-out: Cytotoxicity in HepG2
[9] = P. falciparum asexual stages, read-out: IC50 (µM) Pf asexual stages
[10] = asexual stages, read-out: IC50 asexual
[11] = sexual stages (gametocytes), dose-response, read-out: IC50 sexual
[12] = HepG2, 48 h exposure, intracellular ATP, read-out: IC50 (μM) Cytotoxicity HepG2

| % Control luminiscence [2] [%] | Compound | Ratio IC50 HepG2/IC50 P. falciparum [1] | IC50 [1, 6] [µM] | IC50 [1, 7] [µM] | IC50 at 48 h [3, 8] [µM] | Ratio IC50 HepG2/IC50 P. falciparum [4] | IC50 [5, 9] [µM] | IC50 [5, 10] [µM] | IC50 [1, 11] [µM] | IC50 at 48 h [3, 12] [µM] | IC50 ([1]; Plasmodium falciparum, gametocytes (S9 Table), read-out: pIC50game (converted)) [µM] | inhibition at 5 µM ([1]; Plasmodium falciparum, gametocytes, primary screen at 5 μM (S9 Table, CSA analogs)) [%] |
| --- | --- | --- | --- | --- | --- | --- | --- | --- | --- | --- | --- | --- |
| 100 | c1ccc2c(NCCCCCCNc3ccnc4ccccc34)ccnc2c1 [TCMDC-137913] | 17 | 0.96 |  | 16.4 | 17 |  | 0.191 | 0.963 |  |  |  |
| 100 | c1cc(CN2CCC(CCN3CCCCC3)CC2)cc(-c2cccc(-c3nc4ccccc4[nH]3)c2)c1 [TCMDC-133920] | 45 | 0.29 | 0.293 | 13.1 | 45 |  | 0.14 |  | 13 |  |  |
| 100 | Fc1ccc2[nH]c(-c3ccc(-c4ccc(CNCCN5CCNCC5)cc4)s3)nc2c1 [TCMDC-132869] | >47 | 0.53 |  | > 25 | >47 | 0.78 | 0.779 |  |  | 0.53 | 101 |
| 100 | C/C=C/C=C/C1=NCCc2cc(OCCC)ccc21 [TCMDC-137442] | 25 | 0.75 | 0.747 | 19 | 25 | 0.91 | 0.914 |  |  |  |  |
| 100 | CCCCCCCN1CC[C@@H](CCCc2ccnc3ccc(OCCCCNC(N)=NO)cc23)[C@@H](CC)C1 [TCMDC-139839] | 36 | 0.47 |  | 17.2 | 36 |  | 0.952 | 0.473 |  |  |  |
| 100 | CCN(CC)CCN(Cc1ccc(-c2ccc(C(F)(F)F)cc2)cc1)C(=O)Cn1cc(Cc2cnn(C)c2)c(=O)nc1/C=C/c1cccc(F)c1F [TCMDC-140964] | 83 | 0.17 |  | 14.4 | 83 |  | 0.957 | 0.173 |  |  |  |
| 100 | COc1ccc2nc3cc(Cl)ccc3c(NCCCCNc3c4ccc(Cl)cc4nc4ccc(OC)cc34)c2c1 [TCMDC-138218] | 72 | 0.2 |  | 14.5 | 72 |  | 0.16 |  |  |  |  |
| 100 | Ic1cc(CNC2CCCCC2)ccc1OCc1cccc(COc2ccc(CNC3CCCCC3)cc2I)c1 [TCMDC-137261] | >75 | 0.33 |  | > 25 | >75 |  | 0.829 | 0.333 |  |  |  |

Further lines, the compound ahead of its results:

| Compound | % Control luminiscence [2] [%] | Ratio IC50 HepG2/IC50 P. falciparum [1] | IC50 [1, 6] [µM] | IC50 [1, 7] [µM] | IC50 at 48 h [3, 8] [µM] | Ratio IC50 HepG2/IC50 P. falciparum [4] | IC50 [5, 9] [µM] | IC50 [5, 10] [µM] | IC50 [1, 11] [µM] | IC50 at 48 h [3, 12] [µM] | IC50 ([1]; Plasmodium falciparum, gametocytes (S9 Table), read-out: pIC50game (converted)) [µM] | inhibition at 5 µM ([1]; Plasmodium falciparum, gametocytes, primary screen at 5 μM (S9 Table, CSA analogs)) [%] |
| --- | --- | --- | --- | --- | --- | --- | --- | --- | --- | --- | --- | --- |
| Cn1nc(C(F)(F)F)c(-c2ccc(Br)cc2)c1NC(=O)Cc1ccccc1F [TCMDC-123792] | 100 | >14 | 1.79 | 1.79 | > 25 | >14 | 0.16 | 0.157 |  |  |  |  |
| COc1cc2nc(N3CCN(c4nc(N)c5cc(OC)c(OC)cc5n4)CC3)nc(N)c2cc1OC [TCMDC-123865] | 100 | >96 | 0.26 |  | > 25 | >96 | 0.15 | 0.146 |  |  |  |  |
| Cc1cccc2nc(-c3ccc(-c4cccc(CNCCN5CCNCC5)c4)cc3)[nH]c12 [TCMDC-132867] | 100 | 16 | 0.84 |  | 13.4 | 16 | 1.23 | 1.23 |  | 13 |  |  |
| CCN(CC)CCCOC(=O)c1ccc2c(c1)-c1ccc(C(=O)OCCCN(CC)CC)c3cccc-2c13 [TCMDC-125491] | 96 | 140 | 0.14 |  | 20 | 140 |  | 0.933 | 0.143 |  |  |  |
| NCc1ccc(CNCc2cccc(-c3ccc(-c4nc5ccccc5[nH]4)cc3)c2)cc1 [TCMDC-132815] | 100 | 45 | 0.48 |  | 21.8 | 45 |  | 0.717 | 0.483 |  |  |  |
| c1cc(CNCCN2CCNCC2)cc(-c2cccc(-c3nc4ccccc4[nH]3)c2)c1 [TCMDC-132859] | 100 | 27 | 0.71 |  | 19.3 | 27 | 0.96 | 0.959 |  | 19 |  |  |
